Results on one compound are retold here after ChEMBL document CHEMBL3044876, “The sodium channel gene in Tetranychus cinnabarinus (Boisduval): identification and expression analysis of a mutation associated with pyrethroid resistance” (2011).

Type in all cases: functional
For assay [1], the system named is Tetranychus cinnabarinus. Description: Insecticidal activity against compound susceptible Tetranychus cinnabarinus (carmine spider mite).
For assay [2], the system named is Tetranychus cinnabarinus. Description: Synergism ratio, LC50 for insecticidal activity against compound resistant Tetranychus cinnabarinus (carmine spider mite) to LC50 for insecticidal activity against compound resistant Tetranychus cinnabarinus in presence of piperonyl butoxide (PBO), diethyl maleate (DEM) and triphenyl phosphate (TPP).
The subject of assay [3] is Tetranychus cinnabarinus. Description: Resistance ratio, LC50 for insecticidal activity against compound resistant Tetranychus cinnabarinus (carmine spider mite) in presence of piperonyl butoxide (PBO), diethyl maleate (DEM) and triphenyl phosphate (TPP) to LC50 for insecticidal activity against compound susceptible Tetranychus cinnabarinus in presence of piperonyl butoxide (PBO), diethyl maleate (DEM) and triphenyl phosphate (TPP).

Assay [4] relates to Tetranychus cinnabarinus. Description: Insecticidal activity against compound resistant Tetranychus cinnabarinus (carmine spider mite) in presence of piperonyl butoxide (PBO), diethyl maleate (DEM) and triphenyl phosphate (TPP).

SMILES strings stand for the structures. Converted amounts (≈) assume the structure as drawn.

For `CC1(C)C(C(=O)OC(C#N)c2cccc(Oc3ccccc3)c2)C1(C)C` (centres undefined) [FENPROPATHRIN], the LC50 (in general, the concentration lethal to half of the exposed cells or organisms) was 0.714 mg/mL (≈ 2040 µM) in the assay with Tetranychus cinnabarinus [1] and 70.3 mg/mL in the assay on Tetranychus cinnabarinus [4]. Moreover, the Ratio stood at 1 in the assay on Tetranychus cinnabarinus [2] and 98.5 with Tetranychus cinnabarinus [3].
